Test results as given in EP4273147A1, “SUBSTITUTED SPIROLACTAMS, SALTS THEREOF AND THEIR USE AS HERBICIDALLY ACTIVE SUBSTANCES” (Bayer Aktiengesellschaft, priority 2022, dated 2023).

Experiments:
SETVI [1] = test: Herbicidal pre-emergence action (Table A5); format: in vivo, Setaria viridis; conditions: application rate 320 g/ha; visual grading after ca. 3 weeks
Summary of the method: (§1)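 In each pot of sandy loam, seed of a single monocot weed species was sown alongside seed of a single dicot weed species, and the seed was covered with soil.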

ECHCG [2] = test: Herbicidal post-emergence action (Table B3); format: in vivo, Echinochloa crus-galli; conditions: application rate 1280 g/ha; rated visually after about 3 weeks
Summary of the method: (§2)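 Greenhouse pot assay, sandy loam soil, one weed species per pot. Application at one-leaf stage. Readout ~3 wk post-treatment: visual % activity, 100 = dead, 0 = as untreated.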

DIGSA [3] = test: Herbicidal pre-emergence action (Table A12); format: in vivo, Digitaria sanguinalis; conditions: application rate 320 g/ha; visual grading after ca. 3 weeks
Summary of the method: as §1

ECHCG [4] = test: Herbicidal pre-emergence action, section C (Table C6); format: in vivo, Echinochloa crus-galli; conditions: visual grading after ca. 3 weeks
POAAN [5] = test: Herbicidal pre-emergence action (Table A7); format: in vivo, Poa annua; conditions: application rate 320 g/ha; visual grading after ca. 3 weeks
Summary of the method: as §1

MATIN = test: Herbicidal pre-emergence action (Table A4); format: in vivo, Matricaria inodora; conditions: application rate 1280 g/ha; visual grading after ca. 3 weeks
Summary of the method: as §1

VIOTR = test: Herbicidal pre-emergence action, section C (Table C12); format: in vivo, Viola tricolor; conditions: application rate 320 g/ha; visual grading after ca. 3 weeks
LOLRI [6] = test: Herbicidal pre-emergence action (Table A3); format: in vivo, Lolium rigidum; conditions: application rate 1280 g/ha; visual grading after ca. 3 weeks
Summary of the method: as §1

DIGSA [7] = test: Herbicidal pre-emergence action, section C (Table C5); format: in vivo, Digitaria sanguinalis; conditions: application rate 320 g/ha; visual grading after ca. 3 weeks
VERPE [8] = test: Herbicidal pre-emergence action (Table A11); format: in vivo, Veronica persica; conditions: application rate 1280 g/ha; visual grading after ca. 3 weeks
Summary of the method: as §1

KCHSC = test: Herbicidal pre-emergence action (Table A10); format: in vivo, Kochia scoparia; conditions: application rate 1280 g/ha; visual grading after ca. 3 weeks
Summary of the method: as §1

ZEAMX [9] = test: Pre-emergence effects on crop plants (Table D1); format: in vivo, Zea mays; conditions: crop plant, visual grading after ca. 3 weeks
ALOMY = test: Herbicidal pre-emergence action, section C (Table C2); format: in vivo, Alopecurus myosuroides; conditions: application rate 320 g/ha; visual grading after ca. 3 weeks
Text: (§4) Seeds of mono- and dicotyledonous weed plants and crop plants were sown, in plastic or organic planting pots, in sandy loam and covered with soil. The compounds according to the invention, formulated in the form of wettable powders (WP) or as emulsifiable concentrates (EC), were applied to the surface of the covering soil as aqueous suspension or emulsion, with the addition of 0.5% of an additive, at an application rate of 600 1 of water/ha (converted). Following treatment, the pots were placed in a greenhouse and kept under optimum growth conditions for the test plants.

ORYZA [10] = test: Post-emergence effects on crop plants (Table F3); format: in vivo, Oryza sativa; conditions: application rate 320 g/ha, crop plant ORYZA
Text: (§3) 2 to 3 weeks after sowing, the test plants were sprayed in the single-leaf stage.

ECHCG [11] = test: Herbicidal pre-emergence action (Table A2); format: in vivo, Echinochloa crus-galli; conditions: application rate 320 g/ha; visual grading after ca. 3 weeks
Summary of the method: as §1

ABUTH [12] = test: Herbicidal pre-emergence action (Table A1); format: in vivo, Abutilon theophrasti; conditions: application rate 1280 g/ha; visual grading after ca. 3 weeks vs untreated controls (100% = plants have died off, 0% = as control plants)
Summary of the method: as §1

STEME = test: Herbicidal pre-emergence action (Table A6); format: in vivo, Stellaria media; conditions: visual grading after ca. 3 weeks
Summary of the method: as §1

LOLRI [13] = test: Herbicidal pre-emergence action, section C (Table C7); format: in vivo, Lolium rigidum; conditions: application rate 320 g/ha; visual grading after ca. 3 weeks
TRZAS [14] = test: Post-emergence effects on crop plants (Table F2); format: in vivo, Triticum aestivum; conditions: application rate 320 g/ha, crop plant TRZAS
Text: as §3

ZEAMX [15] = test: Post-emergence effects on crop plants (Table F1); format: in vivo, Zea mays; conditions: application rate 320 g/ha, crop plant ZEAMX
Text: as §3

SETVI [16] = test: Herbicidal pre-emergence action, section C (Table C10); format: in vivo, Setaria viridis; conditions: application rate 320 g/ha; visual grading after ca. 3 weeks
ORYZA [17] = test: Pre-emergence effects on crop plants (Table D3); conditions: crop plant; application rate 80 g/ha; visual grading after ca. 3 weeks
ABUTH [18] = test: Herbicidal pre-emergence action, section C (Table C1); format: in vivo, Abutilon theophrasti; conditions: application rate 320 g/ha; visual grading after ca. 3 weeks
Text: as §4

AMARE = test: Herbicidal pre-emergence action (Table A8); format: in vivo, Amaranthus retroflexus; conditions: application rate 1280 g/ha; visual grading after ca. 3 weeks vs untreated controls (100% = plants have died off, 0% = as control plants)
Text: Seeds of mono- and dicotyledonous weed plants were sown in plastic pots (double sowings with one species of mono- and one species of dicotyledonous weed plants per pot), in sandy loam, and covered with soil.

VERPE [19] = test: Herbicidal pre-emergence action, section C (Table C11); format: in vivo, Veronica persica; conditions: visual grading after ca. 3 weeks
Text: as §4

ABUTH [20] = test: Herbicidal post-emergence action (Table B1); format: in vivo, Abutilon theophrasti; conditions: application rate 1280 g/ha; treated at one-leaf stage; rated visually after about 3 weeks vs untreated controls (100% = plants have died, 0% = like control plants)
Method: Seeds of mono- and dicotyledonous weed plants were placed in plastic pots in sandy loam soil (doubly sown with in each case one species of mono- or dicotyledonous weed plants per pot), covered with soil and cultivated in a greenhouse under controlled growth conditions. 2 to 3 weeks after sowing, the test plants were treated at the one-leaf stage. […] After the test plants had been kept in the greenhouse under optimum growth conditions for about 3 weeks, the activity of the preparations was rated visually in comparison to untreated controls. For example, 100% activity = the plants have died, 0% activity = like control plants.

VERPE [21] = test: Herbicidal post-emergence action, section E (Table E9); format: in vivo, Veronica persica; conditions: application rate 320 g/ha; assessed visually after ca. 3 weeks
Text: as §3

POAAN [22] = test: Herbicidal post-emergence action (Table B7); format: in vivo, Poa annua; conditions: application rate 1280 g/ha
Summary of the method: as §2

ECHCG [23] = test: Herbicidal post-emergence action, section E (Table E5); format: in vivo, Echinochloa crus-galli; conditions: application rate 320 g/ha; assessed visually after ca. 3 weeks
Text: as §3

TRZAS [24] = test: Pre-emergence effects on crop plants (Table D2); format: in vivo, Triticum aestivum; conditions: crop plant; application rate 320 g/ha; visual grading after ca. 3 weeks
BRSNW [25] = test: Pre-emergence effects on crop plants (Table D5); format: in vivo, Brassica napus; conditions: crop plant; application rate 80 g/ha; visual grading after ca. 3 weeks
BRSNW [26] = test: Post-emergence effects on crop plants (Table F5); format: in vivo, Brassica napus; conditions: application rate 80 g/ha, crop plant BRSNW
Text: as §3

GLXMA = test: Pre-emergence effects on crop plants (Table D4); format: in vivo, Glycine max; conditions: crop plant; application rate 80 g/ha; visual grading after ca. 3 weeks

O=C1N(Cc2ccccc2)CCCC12CCN(Cc1cccc(F)c1F)C2=O (racemic) [I-039]
100%: pre-emergence activity against SETVI (SETVI [1]) | pre-emergence activity against DIGSA (DIGSA [3]) | pre-emergence activity against ECHCG (ECHCG [4]; application rate 80 g/ha) | pre-emergence activity against POAAN (POAAN [5]) | pre-emergence activity against LOLRI (LOLRI [6]) | pre-emergence activity against DIGSA (DIGSA [7]) | pre-emergence activity against ALOMY (ALOMY) | pre-emergence activity against ECHCG (ECHCG [11]) | pre-emergence activity against SETVI (SETVI [16])
0%: pre-emergence activity against ZEAMX (ZEAMX [9]; application rate 80 g/ha) | post-emergence activity against ORYZA (ORYZA [10]) | post-emergence activity against TRZAS (TRZAS [14])
90%: post-emergence activity against ECHCG (ECHCG [2]) | pre-emergence activity against MATIN (MATIN) | pre-emergence activity against VIOTR (VIOTR) | pre-emergence activity against VERPE (VERPE [8]) | pre-emergence activity against KCHSC (KCHSC) | pre-emergence activity against ABUTH (ABUTH [12]) | pre-emergence activity against STEME (STEME; application rate 1280 g/ha) | pre-emergence activity against LOLRI (LOLRI [13]) | pre-emergence activity against ABUTH (ABUTH [18]) | pre-emergence activity against AMARE (AMARE) | post-emergence activity against ABUTH (ABUTH [20])
80%: pre-emergence activity against VERPE (VERPE [19]; application rate 320 g/ha)
20%: post-emergence activity against ZEAMX (ZEAMX [15]) | pre-emergence activity against ORYZA (ORYZA [17])

O=C1N(Cc2ccc(Cl)s2)CCCC12CCCN(Cc1ccc(Cl)s1)C2=O (racemic) [I-022]
100%: pre-emergence activity against SETVI (SETVI [1]) | pre-emergence activity against ECHCG (ECHCG [4]; application rate 320 g/ha) | pre-emergence activity against POAAN (POAAN [5]) | pre-emergence activity against STEME (STEME; application rate 320 g/ha) | pre-emergence activity against SETVI (SETVI [16]) | pre-emergence activity against VERPE (VERPE [19]; application rate 80 g/ha)
0%: pre-emergence activity against ZEAMX (ZEAMX [9]; application rate 320 g/ha) | pre-emergence activity against BRSNW (BRSNW [25]) | post-emergence activity against ZEAMX (ZEAMX [15])
20%: post-emergence activity against BRSNW (BRSNW [26]) | pre-emergence activity against GLXMA (GLXMA)
10%: pre-emergence activity against TRZAS (TRZAS [24]) | post-emergence activity against ORYZA (ORYZA [10]) | post-emergence activity against TRZAS (TRZAS [14]) | pre-emergence activity against ORYZA (ORYZA [17])
80%: pre-emergence activity against VIOTR (VIOTR) | post-emergence activity against VERPE (VERPE [21])
90%: pre-emergence activity against MATIN (MATIN) | post-emergence activity against POAAN (POAAN [22]) | pre-emergence activity against LOLRI (LOLRI [6]) | post-emergence activity against ECHCG (ECHCG [23]) | pre-emergence activity against ALOMY (ALOMY)
